From US20020081661A1 (Synaptic Pharmaceutical Corporation, priority 1992, published 2002)
Like-named read-outs stand apart in the source and are kept apart here.

How the values were obtained:
[1] = target: T1, rat 5-HT4 receptor S10-95 (CG-8) (Rattus norvegicus, UniProt Q62758); assay: [3H]5-HT radioligand binding (displacement), membranes of Cos-7 cells transiently expressing rat S10-95 (CG-8); details: read-out: K1; CG-8, binding data using [3H]5-HT, Table 4
Protocol: (§2) For transient expression, Cos-7 cells were transfected by the DEAE-Dextran method, using 1 μg of DNA /10^6 cells (Warden, D. and H. V. Thorne, 1968).
(§3) Membrane Preparation: Membranes were prepared from transiently transfected COS-7 cells which were grown to 100% confluence. The cells were washed twice with phosphate-buffered saline, scraped from the culture dishes into 5 ml of ice-cold phosphate-buffered saline, and centrifuged at 200×g for 5 min at 4′. The pellet was resuspended in 2.5 ml of ice-cold Tris buffer (20 mM Tris -HCl, pH 7.4 at 23°, 5 mM EDTA), and homogenized by a Wheaton tissue grinder. The lysate was subsequently centrifuged at 200×g for 5 min at 4° to pellet large fragments which were discarded. The supernatant was collected and centrifuged at 40,000×g for 20 min at 4°. The pellet resulting from this centrifugation was washed once in ice-cold Tris wash buffer and finally resuspended in a final buffer containing 50 mM Tris-HCl and 0.5 mM EDTA, pH 7.4 at 23°. Membrane preparations were kept on ice and utilized within two hr for the radioligand binding assays. Protein concentrations were determined by the method of Bradford (1976) using bovine serum albumin as the standard.
(§4) The binding profile of drugs in competition experiments was established using 7 concentrations of compound. Incubation times were 30 min for both saturation and displacement studies. […] Binding was initiated by the addition of 50 μl membrane homogenates (10-20 μg). The reaction was terminated by rapid filtration through presoaked (0.5% polyethyleneimine) filters using 48R Cell Brandel Harvester (Gaithersburg, Md.). Subsequently, filters were washed for 5 sec with ice cold buffer (50 mM Tris HCL, pH 7.4 at 4° C.), dried and placed into vials containing 2.5 ml of Readi-Safe (Beckman, Fullerton, Calif.), and radioactivity was measured using a Beckman LS 6500C liquid scintillation counter. […] Binding data were analyzed by computer-assisted nonlinear regression analysis (Accufit and Accucomp, Lundon Software, Chagrin Falls, Ohio). […]

[2] = target: T2, rat 5-HT4 (CG-7) receptor (Rattus norvegicus, UniProt Q62758); assay: cAMP formation in intact Cos-7 cells transiently expressing CG-7; type: cell-based
T2 construct: two individual full length cDNA clones, S10-87 and S10-95, were isolated; expressed in transfected cells; host or cells: COS-7 (transient, DEAE-dextran)
T2 sequence (Q62758 1-387 isoform Q62758-2): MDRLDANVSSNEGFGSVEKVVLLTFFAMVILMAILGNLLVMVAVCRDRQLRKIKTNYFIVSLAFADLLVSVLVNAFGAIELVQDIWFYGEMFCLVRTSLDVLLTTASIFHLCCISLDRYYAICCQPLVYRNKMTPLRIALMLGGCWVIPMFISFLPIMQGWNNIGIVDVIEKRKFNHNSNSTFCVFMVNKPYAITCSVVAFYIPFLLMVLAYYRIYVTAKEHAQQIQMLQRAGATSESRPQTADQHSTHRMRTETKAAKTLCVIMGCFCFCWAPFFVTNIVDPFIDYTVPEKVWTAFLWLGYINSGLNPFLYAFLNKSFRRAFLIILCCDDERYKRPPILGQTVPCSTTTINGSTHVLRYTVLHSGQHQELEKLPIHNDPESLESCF
Protocol: (§1) Measurement of cAMP Formation: The transiently transfected Cos-7 cells were incubated in Dulbecco's modified Eagle's medium, 5 mM theophylline, 10 mM Hepes (4-[2-Hydroxyethyl]-1-piperazineethanesulfonic acid), 10 μM pargyline, and/or appropriate concentrations of antagonists for 20 minutes at 37° C., 5% CO2. […] The media was aspirated and the reaction stopped by the addition of 100 mM HCl. The plates were stored at 4° C. for 15 minutes, centrifuged for 5 minutes, 500×g to pellet cellular debris, and the supernatant aliquotted and stored at −20° C. prior to assessment of cAMP formation by radioimmunoassay (cAMP Radioimmunoassay kit, Advanced Magnetics, Cambridge, Mass.). Radioactivity was quantitated using a Packard COBRA Auto Gamma Counter equipped with data reduction software. Functional data was fitted to a four parameter logistic equation to obtain response parameters (EC50, Emax, nH; Inplot, GraphPad, San Diego, Calif.).

[3] = target: T3, human 5-HT4 receptor S10-95 (CG-17) (Homo sapiens, UniProt Q13639); assay: [3H]5-HT displacement binding, human CG-17 clone
T3 construct: Isolation of the full length human S10-95 cDNA clone; expressed in transfected cells; host or cells: COS-7 (transient, DEAE-dextran)
T3 sequence (Q13639 whole entry): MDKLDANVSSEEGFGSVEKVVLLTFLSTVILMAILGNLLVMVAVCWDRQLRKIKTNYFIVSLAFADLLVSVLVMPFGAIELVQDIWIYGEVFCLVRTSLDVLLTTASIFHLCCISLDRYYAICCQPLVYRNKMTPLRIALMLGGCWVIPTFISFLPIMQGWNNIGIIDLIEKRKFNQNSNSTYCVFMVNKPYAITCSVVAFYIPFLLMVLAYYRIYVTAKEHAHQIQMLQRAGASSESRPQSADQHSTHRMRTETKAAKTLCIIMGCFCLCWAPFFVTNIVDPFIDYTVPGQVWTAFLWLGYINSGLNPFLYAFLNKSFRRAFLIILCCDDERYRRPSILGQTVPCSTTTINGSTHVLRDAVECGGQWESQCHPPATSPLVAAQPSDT
Protocol: (§5) Membrane Preparation: Membranes were prepared from transiently transfected COS-7 cells which were grown to 100% confluence. The cells were washed twice with phosphate-buffered saline, scraped from the culture dishes into 5 ml of ice-cold phosphate-buffered saline, and centrifuged at 200×g for 5 min at 4′. The pellet was resuspended in 2.5 ml of ice-cold Tris buffer (20 mM Tris -HCl, pH 7.4 at 23°, 5 mM EDTA), and homogenized by a Wheaton tissue grinder. The lysate was subsequently centrifuged at 200×g for 5 min at 4° to pellet large fragments which were discarded. The supernatant was collected and centrifuged at 40,000×g for 20 min at 4°. The pellet resulting from this centrifugation was washed once in ice-cold Tris wash buffer and finally resuspended in a final buffer containing 50 mM Tris-HCl and 0.5 mM EDTA, pH 7.4 at 23°. Membrane preparations were kept on ice and utilized within two hr for the radioligand binding assays.
(§6) The binding profile of drugs in competition experiments was established using 7 concentrations of compound. Incubation times were 30 min for both saturation and displacement studies. […] Binding was initiated by the addition of 50 μl membrane homogenates (10-20 μg). The reaction was terminated by rapid filtration through presoaked (0.5% polyethyleneimine) filters using 48R Cell Brandel Harvester (Gaithersburg, Md.). Subsequently, filters were washed for 5 sec with ice cold buffer (50 mM Tris HCL, pH 7.4 at 4° C.), dried and placed into vials containing 2.5 ml of Readi-Safe (Beckman, Fullerton, Calif.), and radioactivity was measured using a Beckman LS 6500C liquid scintillation counter. […] Binding data were analyzed by computer-assisted nonlinear regression analysis (Accufit and Accucomp, Lundon Software, Chagrin Falls, Ohio).

[4] = target: T1, rat 5-HT4 receptor S10-95 (CG-8)
Protocol: as §2, §3, §4

[5] = target: T4, rat 5-HT4 receptor S10-87 (CG-7) (Rattus norvegicus, UniProt Q62758); assay: [3H]5-HT radioligand binding (saturation and displacement), membranes of Cos-7 cells transiently expressing rat S10-87 (CG-7)
T4 sequence (Q62758 1-387 isoform Q62758-2): as the sequence (Q62758 1-387 isoform Q62758-2) above
Protocol: as §5, §6

[6] = target: T1, rat 5-HT4 receptor S10-95 (CG-8); assay: [3H]GR113808 binding (saturation and displacement), COS-7 membranes, rat clone CG-8; design: two individual full length cDNA clones, S10-87 and S10-95, were isolated; expressed in transfected cells; host or cells: COS-7 (transient, DEAE-dextran)
Protocol: as §5
(§7) The binding profile of drugs in competition experiments was established using 10-12 concentrations of compound. Incubation times were 30 min for both saturation and displacement studies.

[7] = target: T4, rat 5-HT4 receptor S10-87 (CG-7); assay: [3H]GR113808 binding (saturation and displacement), COS-7 membranes, rat clone CG-7; design: two individual full length cDNA clones, S10-87 and S10-95, were isolated; expressed in transfected cells; host or cells: COS-7 (transient, DEAE-dextran)
Protocol: as §5, §7

[8] = target: T5, rat 5-HT4 (CG-8) receptor (Rattus norvegicus, UniProt Q62758); assay: cAMP formation in intact Cos-7 cells transiently expressing CG-8; type: cell-based
T5 construct: two individual full length cDNA clones, S10-87 and S10-95, were isolated; expressed in transfected cells; host or cells: COS-7 (transient, DEAE-dextran)
T5 sequence (Q62758 whole entry): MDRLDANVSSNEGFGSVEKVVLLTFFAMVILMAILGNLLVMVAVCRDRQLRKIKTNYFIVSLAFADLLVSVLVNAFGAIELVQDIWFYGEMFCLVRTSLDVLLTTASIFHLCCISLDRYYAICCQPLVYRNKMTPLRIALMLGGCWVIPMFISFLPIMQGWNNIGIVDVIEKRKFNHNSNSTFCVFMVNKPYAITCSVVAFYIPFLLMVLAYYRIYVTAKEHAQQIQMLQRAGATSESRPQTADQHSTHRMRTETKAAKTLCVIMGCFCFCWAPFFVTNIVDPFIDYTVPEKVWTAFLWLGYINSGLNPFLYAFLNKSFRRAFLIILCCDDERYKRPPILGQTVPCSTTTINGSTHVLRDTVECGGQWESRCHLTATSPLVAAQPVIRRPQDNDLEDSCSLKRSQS
Protocol: as §1

T1 sequence (Q62758 whole entry): as above

COc1cc(N)c(Cl)cc1C(=O)NC1CN2CCC1CC2 (stereo not drawn) [Zacopride, zacopride]
Ki [1]: 136 ± 5 nM | agonist / antagonist character ([2]; CG-7, cAMP response): partial agonists | I. A. (intrinsic activity) ([2]; CG-7, maximum response normalized to 5-HT maximum = 1.0): 1.1 | fold lower affinity than cisapride ([2]; CG-7, stimulation of adenylate cyclase): ~15 fold | times less potent than 5-HT ([2]; CG-7, stimulation of basal cAMP release): ~100 fold | EC50 ([2]; CG-7, stimulation of basal cAMP release, means ± S.E.M. of three experiments, read-out: EC50): 2740 nM | fold higher affinity for the human CG-17 clone ([3]; human CG-17 compared with rat clones): about 7 fold | Ki ([3]; read-out: Ki): 17 nM | Ki [4]: 136 ± 5 nM | Ki [5]: 130 ± 10 nM | Ki ([5]; K1 (nM), CG-7, binding data using [3H]5-HT, Table 4): 130 ± 10 nM | Ki ([6]; CG-8, 0.2-0.4 nM [3H]GR113808, single experiment, read-out: Affinity estimate K1): 820 nM | nH (Hill coefficient) ([6]; CG-8, [3H]GR113808): nH = 0.85 | Ki ([7]; CG-7, 0.2-0.4 nM [3H]GR113808, single experiment, read-out: Affinity estimate K1): 729 nM | BH (percentage of high affinity sites) ([7]; CG-7, [3H]GR113808): 68% | nH (Hill coefficient) ([7]; CG-7, [3H]GR113808): nH = 0.80 | Ki ([7]; CG-7, [3H]GR113808, read-out: KH (affinity for the high affinity state)): 424 nM | Ki ([7]; CG-7, [3H]GR113808, read-out: KL (affinity for the low affinity state)): 2760 nM | agonist / antagonist character ([8]; CG-8, cAMP response): partial agonists | I. A. (intrinsic activity) ([8]; CG-8, maximum response normalized to 5-HT maximum = 1.0): 1.0 | EC50 ([8]; CG-8, stimulation of basal cAMP release, means ± S.E.M. of three experiments, read-out: EC50): 239 ± 33 nM
